Among the data in US11780845B2 (Relay Therapeutics, Inc., priority 2019, dated 2023) are IC50 values, retold here.

Where only a bound is given, the exact number is not on record here.

One test addresses FGFR2 (Homo sapiens (Human), UniProt P21802). The experiment in a line: FGFR2 Biochemical Caliper Assay. How it is done:
Compounds of the present invention were also tested in a FGFR2 Biochemical Caliper Assay. Compounds were prepared in 10 mM DMSO solution and serially diluted into 11 concentrations by 3-fold dilution. […] 5 uL of ATP solution (100 uM) was added to start the reaction and the plate was incubated for 90 minutes, then 70 uL of stopping buffer (0.5M EDTA) was added to terminate the reaction. Each well was analyzed using EZ reader.

The test system of the next test is SNU16 cells. In words: SNU16 Cancer Cell Line Proliferation Assay. The class given is cell-based. Conditions: Homo sapiens; SNU-16 cells. Put shortly: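 Proliferation read-out: CellTiter Glo chemiluminescence after 96 h compound exposure. Test compounds, serially diluted 3-fold over 11 points from a 10 mM DMSO stock, were added to SNU16 cells plated 24 h earlier at 37 degrees.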

FGFR2, sequence (P21802 22-821): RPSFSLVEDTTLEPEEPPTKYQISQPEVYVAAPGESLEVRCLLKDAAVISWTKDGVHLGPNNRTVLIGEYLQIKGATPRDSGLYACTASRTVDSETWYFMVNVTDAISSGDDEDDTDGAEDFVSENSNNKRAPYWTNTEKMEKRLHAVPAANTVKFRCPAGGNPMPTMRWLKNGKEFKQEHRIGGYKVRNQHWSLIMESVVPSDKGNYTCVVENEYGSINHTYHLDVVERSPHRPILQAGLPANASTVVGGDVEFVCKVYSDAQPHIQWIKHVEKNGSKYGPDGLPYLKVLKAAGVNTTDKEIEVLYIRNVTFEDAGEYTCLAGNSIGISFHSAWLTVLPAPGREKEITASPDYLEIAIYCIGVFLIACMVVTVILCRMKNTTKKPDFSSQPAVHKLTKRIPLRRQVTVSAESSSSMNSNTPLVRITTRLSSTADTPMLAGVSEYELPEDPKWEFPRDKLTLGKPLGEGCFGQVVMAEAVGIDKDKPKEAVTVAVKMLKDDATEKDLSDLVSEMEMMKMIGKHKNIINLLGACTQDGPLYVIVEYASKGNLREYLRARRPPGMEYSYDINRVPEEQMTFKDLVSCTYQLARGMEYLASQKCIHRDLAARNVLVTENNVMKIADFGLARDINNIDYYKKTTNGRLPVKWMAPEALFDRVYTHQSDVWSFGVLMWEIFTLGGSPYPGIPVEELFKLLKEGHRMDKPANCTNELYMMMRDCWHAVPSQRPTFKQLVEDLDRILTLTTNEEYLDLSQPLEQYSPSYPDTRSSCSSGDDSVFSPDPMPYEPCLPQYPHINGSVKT

In general, IC50 refers to the concentration at which inhibition is half-maximal. A high value points to lower potency. On to `C=CC(=O)N1CCC(n2cc(-c3c(-c4ccc(Oc5ccccc5)cc4)c4c(N)ncnc4n3C)cn2)C(O)C1` (centres unmarked) [Example 607], for which the figures for the IC50 at FGFR2 and with SNU16 cells were less than 100 nM and no more than 100 nM, respectively.
Turning to `C=C(C)C(=O)Nc1ccc(-c2c(-c3ccc(S(=O)(=O)N(C)C4CCCC4)cc3)c3c(N)ncnc3n2C)cc1` [Example 312], the half-inhibitory concentration (IC50) on FGFR2 and in the test on SNU16 cells was 250 to 1000 nM throughout.
Regarding `C=CC(=O)N1CCC(c2[nH]c3ncnc(N)c3c2-c2ccc(Oc3ccc(C)cn3)cc2)C1` (centres unmarked) [Example 775], the half-maximal inhibitory concentration (IC50) is 100 to 250 nM on FGFR2 and 1000 to 100000 nM with SNU16 cells.
The corresponding values for `C=CC(=O)Nc1ccc(-c2c(-c3ccc(Oc4ncccn4)c(OC(F)(F)F)c3)c3c(N)ncnc3n2C)cc1` [Example 53] are less than 100 nM and no more than 100 nM.
The matching figures for `C=C(C)C(=O)Nc1ccc(-c2c(-c3ccc(C(=O)N4CC5CCC4CC5)cc3)c3c(N)ncnc3n2C)cc1` [Example 262]: less than 100 nM and no more than 100 nM.
The corresponding values for `C=CC(=O)N1CCC(n2cc(-c3c(-c4ccc(Oc5cccc(C)n5)c(OC)c4)c4c(N)ncnc4n3C)cn2)CC1` [Example 641] are less than 100 nM and no more than 100 nM.
Regarding `C=C(C)C(=O)Nc1ccc(-c2c(-c3ccc(S(=O)(=O)NCC(C)(C)O)cc3)c3c(N)ncnc3n2C)cc1` [Example 310], the IC50 against FGFR2 was in the range of 1000 to 100000 nM; in the test with SNU16 cells it was 250 to 1000 nM.
The matching figures for `C=C(C)C(=O)Nc1ccc(-c2c(-c3ccc(Oc4cccc(C)n4)cc3)c3c(N)ncnc3n2C)c(C)c1` [Example 384]: less than 100 nM and no more than 100 nM.
For `C=CC(=O)Nc1ccc(-c2c(C3=CCC(C(=O)NC)CC3)c3c(N)ncnc3n2C)cc1` (centres unmarked) [Example 148], the IC50 is less than 100 nM on FGFR2 and no more than 100 nM with SNU16 cells.
The matching figures for `C=CC(=O)N1CC[C@H](c2c(-c3ccc(Oc4ncccn4)cc3)c3c(N)ncnc3n2CCN2CCOCC2)C1` [Example 741]: 1000 to 100000 nM and 1000 to 100000 nM.
Take `C=C(C)C(=O)Nc1ccc(-c2c(-c3ccc(C(=O)N(C)C)nc3)c3c(N)ncnc3n2C)cc1` [Example 143]: the 50% inhibitory concentration (IC50) on FGFR2 lay within 1000 to 100000 nM; in the test on SNU16 cells it was 250 to 1000 nM.
For `C=C(C)C(=O)Nc1ccc(-c2c(-c3cc(F)c(Oc4ncc(C)cn4)c(F)c3)c3c(N)ncnc3n2C)cc1` [Example 423], the results for the IC50 against FGFR2 and in the test on SNU16 cells were less than 100 nM and 100 to 250 nM, respectively.
The corresponding values for `C=CC(=O)N1CCC(c2c(-c3ccc(-c4cnn(C)c4)cc3)c3c(N)ncnc3n2C)C1` (centres unmarked) [Example 766] are 250 to 1000 nM and 250 to 1000 nM.
The matching figures for `C=C(C)C(=O)Nc1ccc(-c2c(C3=C(F)CC(C(=O)N4CCCC4)CC3)c3c(N)ncnc3n2C)cc1` (centres unmarked) [Example 601]: 1000 to 100000 nM and 250 to 1000 nM.
As to `C=CC(=O)N1CCC(c2c(-c3ccc(Oc4ncccn4)cc3)c3c(N)ncnc3n2C)C1` (centres unmarked) [Example 682], the IC50 against FGFR2 was 100 to 250 nM; in the test on SNU16 cells, no more than 100 nM.
The matching figures for `C=C(C)C(=O)Nc1ccc(-c2c(-c3ccc(Oc4nccc(C(F)F)n4)cc3)c3c(N)ncnc3n2C)cc1` [Example 600]: less than 100 nM and no more than 100 nM.
Consider `C=CC(=O)Nc1ccc(-c2c(-c3ccc(Oc4ncccn4)c(OC)c3)c3c(N)ncnc3n2C)cc1` [Example 15], for which the values for the concentration for half-maximal inhibition (IC50) on FGFR2 and in the test with SNU16 cells were less than 100 nM and no more than 100 nM, respectively.
The matching figures for `C=CC(=O)Nc1ccc(-c2c(-c3ccc(Oc4ncc(Cl)cn4)c(OC)c3)c3c(N)ncnc3n2C)cc1` [Example 78]: less than 100 nM and no more than 100 nM.
The matching figures for `C=CC(=O)Nc1ccc(-c2c(-c3ccc(Oc4ncccn4)c(N(C)C)c3)c3c(N)ncnc3n2C)cc1` [Example 49]: less than 100 nM and no more than 100 nM.
Consider `C=Cc1ncc(-c2c(-c3ccc(C(=O)N4CCCC4)cc3)c3c(N)ncnc3n2C)cn1` [Example 554], for which the concentration for half-maximal inhibition (IC50) at FGFR2 and with SNU16 cells was 250 to 1000 nM in each case.
In the case of `C=C(C)C(=O)Nc1ccc(-c2c(-c3ccc(C(=O)N(C)C4CCCC4)cc3)c3c(N)ncnc3n2C)cc1` [Example 233], the IC50 at FGFR2 and in the test on SNU16 cells was 100 to 250 nM each time.
For `C=C(C)C(=O)Nc1ccc(-c2c(-c3ccc(C(=O)N4CCCC4)cc3)c3c(N)ncnc3n2C)c(C(F)F)c1` [Example 436], the IC50 on FGFR2 was less than 100 nM; with SNU16 cells, 100 to 250 nM.
The matching figures for `C=CC(=O)N1CC=C(c2c(-c3ccc(Oc4cccc(C)n4)cc3)c3c(N)ncnc3n2C)C1` [Example 666]: less than 100 nM and no more than 100 nM.
Consider `C=C(CN(C)C)C(=O)Nc1ccc(-c2c(-c3ccc(C(=O)N4CCCC4)cc3)c3c(N)ncnc3n2C)cc1` [Example 522], for which the IC50 is less than 100 nM against FGFR2 and no more than 100 nM with SNU16 cells.
With `C=CC(=O)N1CCC(c2c(-c3ccc(COc4ccccc4)cc3)c3c(N)ncnc3n2C)C1` (centres unmarked) [Example 729], the IC50 against FGFR2 and in the test with SNU16 cells was 100 to 250 nM each time.
As to `C=C(C)C(=O)Nc1ccc(-c2c(-c3ccc(Oc4nccc(C)n4)cc3C#N)c3c(N)ncnc3n2C)cc1` [Example 564], the IC50 was in the range of 1000 to 100000 nM at FGFR2 and 250 to 1000 nM in the test on SNU16 cells.
For the compound `C=CC(=O)N1CC=C(c2c(-c3ccc(Oc4cccc(C)n4)cc3)c3c(N)ncnc3n2C)CC1` [Example 656], the IC50 against FGFR2 was less than 100 nM; in the test with SNU16 cells, no more than 100 nM.
`C=CC(=O)N1CC[C@@H](c2[nH]c3ncnc(N)c3c2-c2ccc(Oc3ncccn3)cc2)C1` [Example 713]: the IC50 against FGFR2 is less than 100 nM; in the test with SNU16 cells it was no more than 100 nM.
The corresponding values for `C=CC(=O)Nc1ccc(-c2c(-c3ccc4c(c3)CCCN4C)c3c(N)ncnc3n2C)cc1` [Example 211] are less than 100 nM and no more than 100 nM.
The matching figures for `C/C(=C\CN(C)C)C(=O)N1CCC(n2cc(-c3c(-c4ccc(Oc5cccc(C)n5)cc4)c4c(N)ncnc4n3C)cn2)CC1` [Example 655]: 250 to 1000 nM and 1000 to 100000 nM.
As to `C=CS(=O)(=O)N1CCC(n2cc(-c3c(-c4ccc(Oc5cccc(C)n5)cc4)c4c(N)ncnc4n3C)cn2)CC1` [Example 648], the IC50 is less than 100 nM against FGFR2 and 100 to 250 nM in the test on SNU16 cells.
As for `C=C(C)C(=O)Nc1ccc(-c2c(-c3ccc(C(=O)N4CCCC4)cc3)c3c(N)ncnc3n2C)cc1OC` [Example 354], the IC50 was in the range of 1000 to 100000 nM against FGFR2 and 250 to 1000 nM with SNU16 cells.
`C=CC(=O)N1CCC(c2c(-c3ccc(C(=O)N4CCCCC4)cc3)c3c(N)ncnc3n2C)C1` (centres unmarked) [Example 750]: the IC50 is less than 100 nM against FGFR2 and no more than 100 nM with SNU16 cells.
With `C=C(C)C(=O)Nc1ccc(-c2c(-c3ccc(Oc4nccc(C(F)F)n4)c(F)c3)c3c(N)ncnc3n2C)cc1` [Example 514], the figures for the IC50 against FGFR2 and in the test on SNU16 cells were less than 100 nM and no more than 100 nM, respectively.
`C=C(C)C(=O)Nc1ccc(-c2c(-c3ccc(C(=O)N4CCC(F)(F)C4)cc3)c3c(N)ncnc3n2C)cc1` [Example 137]: the results for the IC50 against FGFR2 and in the test on SNU16 cells were 250 to 1000 nM and no more than 100 nM, respectively.
The matching figures for `C=C(C)C(=O)Nc1ccc(-c2c(-c3ccc(C(=O)N4CCC5CC5C4)cc3)c3c(N)ncnc3n2C)cc1` (centres unmarked) [Example 228]: less than 100 nM and no more than 100 nM.
For the compound `C=C(C)C(=O)Nc1ccc(-c2c(-c3ccc(C(=O)NCC4CCC4)c(OC)c3)c3c(N)ncnc3n2C)cc1` [Example 391], the results for the half-inhibitory concentration (IC50) against FGFR2 and in the test with SNU16 cells were less than 100 nM and no more than 100 nM, respectively.
The corresponding values for `C=CC(=O)N(C)c1ccc(-c2[nH]c3ncnc(N)c3c2-c2ccc(Oc3cccc(C)n3)cc2)cc1` [Example 777] are 1000 to 100000 nM and 1000 to 100000 nM.
With `C=C(C)C(=O)Nc1ccc(-c2c(-c3ccc(C(=O)N(C)CC(C)(C)O)cc3)c3c(N)ncnc3n2C)cc1` [Example 368], the half-inhibitory concentration (IC50) on FGFR2 and with SNU16 cells was 250 to 1000 nM each time.
As to `C/C=C/C(=O)N1CCC(c2c(-c3ccc(Oc4cccc(C)n4)cc3)c3c(N)ncnc3n2C)CC1` [Example 694], the IC50 on FGFR2 and in the test with SNU16 cells was 250 to 1000 nM each time.
On to `C=C(C)C(=O)Nc1ccc(-c2c(-c3cc(F)c(Oc4nccc(C)n4)c(F)c3)c3c(N)ncnc3n2C)cc1` [Example 447], for which the IC50 at FGFR2 is less than 100 nM; with SNU16 cells, no more than 100 nM.
`C=C(C)C(=O)Nc1ccc(-c2c(-c3ccc(C(=O)N4CCCC[C@H]4C)cc3)c3c(N)ncnc3n2C)cc1` [Example 293]: the IC50 against FGFR2 is less than 100 nM; with SNU16 cells, no more than 100 nM.
As for `C=CC(=O)N1CCC(n2cc(-c3c(-c4ccc(Oc5cc(C)ccn5)cc4)c4c(N)ncnc4n3C)cn2)CC1` [Example 631], the IC50 on FGFR2 and with SNU16 cells was 100 to 250 nM throughout.
`C=C(C)C(=O)Nc1ccc(-c2c(-c3ccc(C(=O)N4CCCC4)cc3)c3c(N)ncnc3n2C)cc1` [Example 95]: the half-inhibitory concentration (IC50) was 100 to 250 nM against FGFR2 and no more than 100 nM in the test on SNU16 cells.
As to `C=CC(=O)N1CCC(c2c(-c3ccc(-c4noc(C)n4)cc3)c3c(N)ncnc3n2C)C1` (centres unmarked) [Example 767], the results for the IC50 on FGFR2 and in the test on SNU16 cells were 250 to 1000 nM and 100 to 250 nM, respectively.
The corresponding values for `C=C(C)C(=O)Nc1ccc(-c2c(-c3ccc(C(=O)N(C)Cc4cnn(C)c4)cc3)c3c(N)ncnc3n2C)cc1` [Example 294] are 1000 to 100000 nM and 250 to 1000 nM.
Take `C=CC(=O)N1CCC(c2c(-c3ccc(C(=O)N4CCCC4)cc3)c3c(N)ncnc3n2C)C1` (centres unmarked) [Example 735]: the IC50 against FGFR2 and with SNU16 cells was 250 to 1000 nM throughout.
`C=CC(=O)N1CC[C@@H](c2c(-c3ccc(Oc4ncccn4)cc3)c3c(N)ncnc3n2C)C1` (single isomer, unassigned) [Example 697]: the IC50 against FGFR2 is less than 100 nM; with SNU16 cells it was no more than 100 nM.
On to `C=C(C)C(=O)Nc1ccc(-c2c(-c3ccc(C(=O)N4CCC5(CCC5)C4)cc3)c3c(N)ncnc3n2C)cc1` [Example 245], for which the IC50 on FGFR2 and in the test on SNU16 cells was 250 to 1000 nM each time.
